In patent publication US20110136762A1, “FUNGICIDAL PYRIDAZINES” (E.I. Du Pont de Nemours and Company, priority 2008, published 2011):

Columns and labels:
Type in all cases: in vivo
Erysiphe graminis = test: Test A: wheat powdery mildew, preventive spray on wheat seedlings, visual disease rating; conditions: 200 ppm, 100 = 100% disease control, 0 = no disease control relative to controls; for pest or weed control at 200 ppm: Blumeria graminis, 192 h
Source text: General protocol for preparing test suspensions for Tests A-F: […] The resulting test suspensions were then used in Tests A-F. The test suspensions were sprayed to the point of run-off on the test plants. All results are for 200 ppm (equivalent to a rate of 500 g/ha) except where followed by “*” which indicates 40 ppm. The test suspension was sprayed to the point of run-off on wheat seedlings. The following day the seedlings were inoculated with a spore dust of Erysiphe graminis, (the causal agent of wheat powdery mildew) and incubated in a growth chamber at 20° C. for 8 days, after which time visual disease ratings were made. […] A dash (-) indicates no test results. All results are for 200 ppm except where followed by “*”, which indicates 40 ppm.

[1] = test system: Puccinia recondita f. sp. tritici; test: Test B: wheat leaf rust, preventive spray on wheat seedlings, visual disease rating; conditions: 200 ppm, 100 = 100% disease control, 0 = no disease control relative to controls; for pest or weed control at 200 ppm: 192 h
Source text: General protocol for preparing test suspensions for Tests A-F: […] The resulting test suspensions were then used in Tests A-F. The test suspensions were sprayed to the point of run-off on the test plants. All results are for 200 ppm (equivalent to a rate of 500 g/ha) except where followed by “*” which indicates 40 ppm. The test suspension was sprayed to the point of run-off on wheat seedlings. The following day the seedlings were inoculated with a spore suspension of Puccinia recondita f. sp. tritici (the causal agent of wheat leaf rust) and incubated in a saturated atmosphere at 20° C. for 24 h, and then moved to a growth chamber at 20° C. for 7 days, after which time visual disease ratings were made. […] A dash (-) indicates no test results. All results are for 200 ppm except where followed by “*”, which indicates 40 ppm.

Septoria tritici = test: Test C: wheat leaf blotch, preventive spray on wheat seedlings, visual disease rating; conditions: 200 ppm, 100 = 100% disease control, 0 = no disease control relative to controls; for pest or weed control at 200 ppm: Zymoseptoria tritici, 504 h
Source text: General protocol for preparing test suspensions for Tests A-F: […] The resulting test suspensions were then used in Tests A-F. The test suspensions were sprayed to the point of run-off on the test plants. All results are for 200 ppm (equivalent to a rate of 500 g/ha) except where followed by “*” which indicates 40 ppm. The test suspension was sprayed to the point of run-off on wheat seedlings. The following day the seedlings were inoculated with a spore suspension of Septoria tritici (the causal agent of wheat leaf blotch) and incubated in saturated atmosphere at 20° C. for 48 h, and moved to a growth chamber at 20° C. for 19 additional days, after which time visual disease ratings were made. […] A dash (-) indicates no test results. All results are for 200 ppm except where followed by “*”, which indicates 40 ppm.

Septoria nodorum = test: Test D: wheat glume blotch, preventive spray on wheat seedlings, visual disease rating; conditions: 200 ppm, 100 = 100% disease control, 0 = no disease control relative to controls; for pest or weed control at 200 ppm: Parastagonospora nodorum
Source text: General protocol for preparing test suspensions for Tests A-F: […] The resulting test suspensions were then used in Tests A-F. The test suspensions were sprayed to the point of run-off on the test plants. All results are for 200 ppm (equivalent to a rate of 500 g/ha) except where followed by “*” which indicates 40 ppm. The test suspension was sprayed to the point of run-off on wheat seedlings. The following day the seedlings were inoculated with a spore suspension of Septoria nodorum (the causal agent of wheat glume blotch) and incubated in a saturated atmosphere at 20° C. for 48 h, and then moved to a growth chamber at 20° C. for 7 days, after which time visual disease ratings were made. […] A dash (-) indicates no test results. All results are for 200 ppm except where followed by “*”, which indicates 40 ppm.

Alternaria solani = test: Test E: tomato early blight, preventive spray on tomato seedlings, visual disease rating; conditions: 200 ppm, 100 = 100% disease control, 0 = no disease control relative to controls; for pest or weed control at 200 ppm: Alternaria solani
Source text: General protocol for preparing test suspensions for Tests A-F: […] The resulting test suspensions were then used in Tests A-F. The test suspensions were sprayed to the point of run-off on the test plants. All results are for 200 ppm (equivalent to a rate of 500 g/ha) except where followed by “*” which indicates 40 ppm. The test suspension was sprayed to the point of run-off on tomato seedlings. […] A dash (-) indicates no test results. All results are for 200 ppm except where followed by “*”, which indicates 40 ppm.

Botrytis cinerea = test: Test F: tomato Botrytis, preventive spray on tomato seedlings, visual disease rating; conditions: 200 ppm, 100 = 100% disease control, 0 = no disease control relative to controls; for pest or weed control at 200 ppm: Botrytis cinerea
Source text: General protocol for preparing test suspensions for Tests A-F: […] The resulting test suspensions were then used in Tests A-F. The test suspensions were sprayed to the point of run-off on the test plants. All results are for 200 ppm (equivalent to a rate of 500 g/ha) except where followed by “*” which indicates 40 ppm. The test suspension was sprayed to the point of run-off on tomato seedlings. The following day the seedlings were inoculated with a spore suspension of Botrytis cinerea (the causal agent of tomato Botrytis) and incubated in saturated atmosphere at 20° C. for 48 h, and then moved to a growth chamber at 24° C. for 3 days, after which time visual disease ratings were made. […] A dash (-) indicates no test results. All results are for 200 ppm except where followed by “*”, which indicates 40 ppm.

`COc1cc(OC)cc(-c2c(-c3ccccc3)nnc(C)c2-c2ccc(F)cc2)c1` [Compound 1, 4-(3,5-dimethoxyphenyl)-5-(4-fluorophenyl)-6-methyl-3-phenylpyridazine] was tested, and the pest or weed control at 200 ppm (Erysiphe graminis) was 85%, the pest or weed control at 200 ppm [1] was 99% and the pest or weed control at 200 ppm (Septoria tritici) was 100%. For the same compound, the pest or weed control at 200 ppm (Septoria nodorum) was 0%, the pest or weed control at 200 ppm (Alternaria solani) was 72% and the pest or weed control at 200 ppm (Botrytis cinerea) was 98%.

Compound `COc1cc(OC)cc(-c2c(-c3ccccc3F)nnc(C)c2-c2ccc(F)cc2)c1` [Compound 2, 4-(3,5-dimethoxyphenyl)-3-(2-fluorophenyl)-5-(4-fluorophenyl)-6-methylpyridazine] has a pest or weed control at 200 ppm (Erysiphe graminis) of 97%, a pest or weed control at 200 ppm [1] of 99% and a pest or weed control at 200 ppm (Septoria tritici) of 100%. For the same compound, the pest or weed control at 200 ppm (Septoria nodorum) was 0%, the pest or weed control at 200 ppm (Alternaria solani) was 99% and the pest or weed control at 200 ppm (Botrytis cinerea) was 99%.

In the case of `COc1cc(OC)cc(-c2c(-c3ccccc3)nnc(C)c2-c2ccccc2)c1` [Compound 3], the “Test A rating (disease control, wheat powdery mildew)” value (“Test A rating” for short) (Erysiphe graminis) is reported as 52%, the “Test B rating (disease control, wheat leaf rust)” value (from here on “Test B rating”) [1] is reported as 86% and the “Test C rating (disease control, wheat leaf blotch)” value (“Test C rating” below) (Septoria tritici) is reported as 87%. The “Test D rating (disease control, wheat glume blotch)” value (shortened to “Test D rating”) (Septoria nodorum) was 0%, the “Test E rating (disease control, tomato early blight)” value (shortened to “Test E rating”) (Alternaria solani) was 0% and the “Test F rating (disease control, tomato Botrytis)” value (“Test F rating” for short) (Botrytis cinerea) was 52%.

In the case of `COc1cc(OC)cc(-c2c(-c3ccccc3F)nnc(C)c2-c2ccccc2)c1` [Compound 4], the “Test A rating” value (Erysiphe graminis) is reported as 82%, the “Test B rating” value [1] is reported as 96% and the “Test C rating” value (Septoria tritici) is reported as 84%. For the same compound, the “Test D rating” value (Septoria nodorum) was 0%, the “Test E rating” value (Alternaria solani) was 28% and the “Test F rating” value (Botrytis cinerea) was 94%.

For `COc1cc(OC)cc(-c2c(-c3ccc(F)cc3F)nnc(C)c2-c2ccccc2)c1` [Compound 5], the “Test A rating” value (Erysiphe graminis) was 91%, the “Test B rating” value [1] was 86% and the “Test C rating” value (Septoria tritici) was 94%. For the same compound, the “Test D rating” value (Septoria nodorum) was 0%, the “Test E rating” value (Alternaria solani) was 0% and the “Test F rating” value (Botrytis cinerea) was 82%.

`COc1cc(OC)cc(-c2c(-c3ccccc3)nnc(C)c2-c2ccc(Cl)cc2)c1` [Compound 6] was tested, and the “Test A rating” value (Erysiphe graminis) was 79%, the “Test B rating” value [1] was 97% and the “Test C rating” value (Septoria tritici) was 97%. For the same compound, the “Test D rating” value (Septoria nodorum) was 0%, the “Test E rating” value (Alternaria solani) was 36% and the “Test F rating” value (Botrytis cinerea) was 67%.

`COc1ccc(-c2c(C)nnc(-c3ccccc3)c2-c2cc(OC)cc(OC)c2)cc1` [Compound 7, 4-(3,5-dimethoxyphenyl)-5-(4-methoxyphenyl)-6-methyl-3-phenylpyridazine] gave a pest or weed control at 200 ppm (Erysiphe graminis) of 95%, a pest or weed control at 200 ppm [1] of 100% and a pest or weed control at 200 ppm (Septoria tritici) of 100%. It also gave a pest or weed control at 200 ppm (Septoria nodorum) of 90%, a pest or weed control at 200 ppm (Alternaria solani) of 96% and a pest or weed control at 200 ppm (Botrytis cinerea) of 97%.

With `COc1ccc(-c2c(C)nnc(-c3ccccc3F)c2-c2cc(OC)cc(OC)c2)cc1` [Compound 8, 4-(3,5-dimethoxyphenyl)-3-(2-fluorophenyl)-5-(4-methoxyphenyl)-6-methylpyridazine] the pest or weed control at 200 ppm (Erysiphe graminis) was 97%, the pest or weed control at 200 ppm [1] was 100% and the pest or weed control at 200 ppm (Septoria tritici) was 100%. For the same compound, the pest or weed control at 200 ppm (Septoria nodorum) was 95%, the pest or weed control at 200 ppm (Alternaria solani) was 99% and the pest or weed control at 200 ppm (Botrytis cinerea) was 98%.

With `COc1ccc(-c2c(C)nnc(-c3ccc(F)cc3F)c2-c2cc(OC)cc(OC)c2)cc1` [Compound 9, 3-(2,4-difluorophenyl)-4-(3,5-dimethoxyphenyl)-5-(4-methoxyphenyl)-6-methylpyridazine] the pest or weed control at 200 ppm (Erysiphe graminis) was 84%, the pest or weed control at 200 ppm [1] was 91% and the pest or weed control at 200 ppm (Septoria tritici) was 100%. It also gave a pest or weed control at 200 ppm (Septoria nodorum) of 60%, a pest or weed control at 200 ppm (Alternaria solani) of 81% and a pest or weed control at 200 ppm (Botrytis cinerea) of 98%.

With `COc1cc(OC)cc(-c2c(-c3cccc(F)c3F)nnc(C)c2-c2ccccc2)c1` [Compound 10] the “Test A rating” value (Erysiphe graminis) was 97%, the “Test B rating” value [1] was 99% and the “Test C rating” value (Septoria tritici) was 99%. For the same compound, the “Test D rating” value (Septoria nodorum) was 0%, the “Test E rating” value (Alternaria solani) was 88% and the “Test F rating” value (Botrytis cinerea) was 95%.

`COc1cc(OC)cc(-c2c(-c3ccc(F)cc3)nnc(C)c2-c2ccccc2)c1` [Compound 11] was tested, and the “Test A rating” value (Erysiphe graminis) was 93%, the “Test B rating” value [1] was 68% and the “Test C rating” value (Septoria tritici) was 70%. The “Test D rating” value (Septoria nodorum) was 0%, the “Test E rating” value (Alternaria solani) was 0% and the “Test F rating” value (Botrytis cinerea) was 0%.

For `COc1cc(OC)cc(-c2c(-c3ccccc3)n[n+]([O-])c(C)c2-c2ccc(F)cc2)c1` [Compound 12, 4-(3,5-dimethoxyphenyl)-5-(4-fluorophenyl)-6-methyl-3-phenylpyridazine 1-oxide], the pest or weed control at 200 ppm (Erysiphe graminis) was 62%, the pest or weed control at 200 ppm [1] was 100% and the pest or weed control at 200 ppm (Septoria tritici) was 99%. For the same compound, the pest or weed control at 200 ppm (Septoria nodorum) was 0%, the pest or weed control at 200 ppm (Alternaria solani) was 94% and the pest or weed control at 200 ppm (Botrytis cinerea) was 100%.

`COc1cc(OC)cc(-c2c(-c3ccccn3)nnc(C)c2-c2ccccc2)c1` [Compound 13, 4-(3,5-dimethoxyphenyl)-6-methyl-5-phenyl-3-(2-pyridinyl)pyridazine] was tested, and the pest or weed control at 200 ppm (Erysiphe graminis) was 0%, the pest or weed control at 200 ppm [1] was 41% and the pest or weed control at 200 ppm (Septoria tritici) was 0%. The pest or weed control at 200 ppm (Septoria nodorum) was 0%, the pest or weed control at 200 ppm (Alternaria solani) was 0% and the pest or weed control at 200 ppm (Botrytis cinerea) was 0%.

With `COc1cc(OC)cc(-c2c(-c3ccccc3)nnc(CCl)c2-c2ccc(F)cc2)c1` [Compound 14, 3-(chloromethyl)-5-(3,5-dimethoxyphenyl)-4-(4-fluorophenyl)-6-phenylpyridazine] the pest or weed control at 200 ppm (Erysiphe graminis) was 11%, the pest or weed control at 200 ppm [1] was 91% and the pest or weed control at 200 ppm (Septoria tritici) was 77%. The pest or weed control at 200 ppm (Septoria nodorum) was 0%, the pest or weed control at 200 ppm (Alternaria solani) was 0% and the pest or weed control at 200 ppm (Botrytis cinerea) was 99%.

`COc1cc(OC)cc(-c2c(-c3ccccc3F)nnc(C)c2-c2ccc(F)cc2F)c1` [Compound 15, 4-(2,4-difluorophenyl)-5-(3,5-dimethoxyphenyl)-6-(2-fluorophenyl)-3-methylpyridazine] showed a pest or weed control at 200 ppm (Erysiphe graminis) of 100%, a pest or weed control at 200 ppm [1] of 100% and a pest or weed control at 200 ppm (Septoria tritici) of 99%. The pest or weed control at 200 ppm (Septoria nodorum) was 98%, the pest or weed control at 200 ppm (Alternaria solani) was 100% and the pest or weed control at 200 ppm (Botrytis cinerea) was 98%.

In the case of `COc1cc(OC)cc(-c2c(-c3ccc(F)cc3F)cnnc2-c2ccccc2F)c1` [Compound 16], the “Test A rating” value (Erysiphe graminis) is reported as 0%, the “Test B rating” value [1] is reported as 96% and the “Test C rating” value (Septoria tritici) is reported as 70%. The “Test D rating” value (Septoria nodorum) was 0%, the “Test E rating” value (Alternaria solani) was 0% and the “Test F rating” value (Botrytis cinerea) was 99%.
